{"source": "patent US20100028872A1", "about": "“Methods for the Detection of Cancer” (priority 2006, published 2010)", "key": {"[1]": {"test_system": "SW48 colorectal tumor cell line", "assay": "5Aza-dC dose optimisation: re-expression of silenced tumor suppressor genes on the expression array", "format": "cell-based", "details": "5 μM 5Aza-dC for at least two cell doubling times, with TSA (500 nM)", "text": "To determine the optimal 5Aza-dC dosage for robust detection of transcriptional reactivation on the microarray without excessive toxicity to the treated cells, the re-expression of 5 tumor suppressor genes, p16^INK4a, MLH1, MGMT, RARβ, and Timp-3, was examined at different doses of 5Aza-dC. The five TSG are well characterized as hypermethylated with associated silencing in the SW48 colorectal tumor cell line, which has a similar cell doubling time to the RCC lines (Wheeler et al. (1999) Proc. Natl. Acad. Sci., 96:10296-301; Esteller et al. (1999) Cancer Res., 59:793-97; Paz et al. (2003) Cancer Res., 63:1114-21; Herman et al. (1995) Cancer Res., 55:4525-30; Bachman et al. (1999) Cancer Res., 59:798-802). RNA was extracted from SW48 cell cultures after treatment with 1, 5, or 10 μM 5Aza-dC and TSA (500 nM). RT-PCR was then performed and the product labeled and hybridized to the expression array. […] The 5Aza-dC treatment was combined with TSA because there is good evidence that the processes of methylation and deacetylation interact to silence transcription, although TSA may have less synergistic effect at the relatively higher 5 μM 5Aza-dC dose employed than when combined with lower doses of 5Aza-dC (Cameron et al. (1999) Nat. Genet., 21:103-7; Wade et al. (2001) Oncogene, 20:3166-73). […]"}, "[2]": {"test_system": "ACHN papillary renal tumor cell line", "assay": "Expression microarray of genes upregulated after 5Aza-dC and TSA treatment", "format": "cell-based, human", "details": "5 μM 5Aza-dC and 500 nM TSA, 14,802 gene microarray", "experimental": "(§1) 5Aza-dC (Sigma, St. Louis, Mo.) was dissolved in phosphate buffered saline (PBS) as a 5 mM stock solution, and stored in aliquots at −80° C. TSA (Wako, Richmond, Va.) was dissolved in absolute ethanol as a 330 μM stock solution, and stored at −20° C. The 4 renal cell lines were split to low density and exposed to 5Aza-dC at a final concentration of 5 μM, again 24 hours after the beginning of treatment and, if necessary, further treatment until the cells had undergone at least 2 doublings. The cells were also treated with TSA at a final concentration of 500 nM during the 24 hours prior to harvest for RNA extraction. Untreated (mock) cells were cultured over an identical period of time with an equivalent volume of PBS and, for the final 24 hours, with an equivalent volume of EtOH.\n(§2) Total RNA was isolated from drug-treated and untreated cultured cells using TRIZOL reagent (Invitrogen, Carlsbad, Calif.) and purified with the RNAeasy Mini Kit (Quiagen, Valencia, Calif.) combined with DNAase treatment. The RNA quality was confirmed by the ratio of 28S and 18S ribosomal RNA after agarose gel electrophoresis. Twenty μg of total RNA was reverse transcribed using oligo (dT)24 primer and Superscript II reverse transcriptase (Invitrogen, Carlsbad, Calif.) for 1.5 hours at 42° C.\n(§3) For each cell line, both treated and untreated cDNA was labeled with Cy3 or Cy5 (Amersham Biosciences, Piscataway, N.J.) and then hybridized to separate human 15k oligoarrays (MWG-Biotech Inc, High Point, N.C.) according to the manufacturer's recommendation for 18 hours at 42° C. The microarrays were processed and spotted in the DNA Microarray Facility at FCCC. The Gene list, Gene ID and Template files can be viewed at research.fccc.edu/facilities/microarray. In addition, microarray hybridization was performed with the opposite labels (dye flip) from each cell line. The hybridized slides were scanned using a GMS 428 Scanner (Affymetrix, Santa Clara, Calif.) to generate high-resolution images for both Cy3 and Cy5 channels. Image analysis was performed using the ImaGene software (BioDiscovery, Inc, El Segundo, Calif.).\n(§4) The genes corresponding to each oligonucleotide spotted on the array were identified using an optimized segmentation algorithm. […] Data were analyzed using the GeneSight software (BioDiscovery, Inc, El Segundo, Calif.) which includes background subtraction, data normalization (Lowess transformation), calculation of ratios, and statistical analysis of replicate spots and slides.\n(§5) Up-regulation of the 14,802 gene microarray was analyzed in 4 RCC lines treated with 5 μM of 5Aza-dC and 500 nM of TSA. […] The promoter region of each gene was also analyzed for the presence of a CpG island with the characteristics described by Takai and Jones (Takai et al. (2002) Proc. Natl. Acad. Sci., 99:3740-5). […]"}, "[3]": {"test_system": "HRC59 papillary renal tumor cell line", "assay": "Expression microarray of genes upregulated after 5Aza-dC and TSA treatment", "format": "cell-based, human", "details": "5 μM 5Aza-dC and 500 nM TSA, 14,802 gene microarray", "experimental": "as §1, §2, §3, §4, §5"}, "[4]": {"test_system": "HRC51 clear cell renal tumor cell line", "assay": "Expression microarray of genes upregulated after 5Aza-dC and TSA treatment", "format": "cell-based, human", "details": "5 μM 5Aza-dC and 500 nM TSA, 14,802 gene microarray", "experimental": "as §1, §2, §3, §4, §5"}, "[5]": {"test_system": "786-0 clear cell renal tumor line", "assay": "Expression microarray of genes upregulated after 5Aza-dC and TSA treatment", "format": "cell-based, human", "details": "5 μM 5Aza-dC and 500 nM TSA, 14,802 gene microarray", "experimental": "as §1, §2, §3, §4, §5"}}}
{"smiles": "Nc1ncn([C@H]2C[C@H](O)[C@@H](CO)O2)c(=O)n1", "note": "[5Aza-dC, 5Aza-2deoxycytidine]", "values": [{"measurement": "toxicity as assessed by comparison of cell morphology and cell death between control and treated cells", "setting": "[1]", "value": "minimal toxicity"}, {"measurement": "re-expression of 5 tumor suppressor genes (p16INK4a, MLH1, MGMT, RARβ, Timp-3)", "setting": "[1]; SW48 cells", "value": "re-expression of the 5 TSG"}, {"measurement": "genes upregulated at least 3-fold compared to the untreated cells", "setting": "[2]", "value": 111, "unit": "genes"}, {"measurement": "genes upregulated at least 3-fold compared to the untreated cells", "setting": "[3]", "value": 178, "unit": "genes"}, {"measurement": "genes upregulated at least 3-fold compared to the untreated cells", "setting": "[4]", "value": 112, "unit": "genes"}, {"measurement": "genes upregulated at least 3-fold compared to the untreated cells", "setting": "[5]", "value": 170, "unit": "genes"}]}
